Measurements from ChEMBL document CHEMBL4219271, “Synthesis and anti-proliferative activity of allogibberic acid derivatives containing 1,2,3-triazole pharmacophore” (Bioorg Med Chem Lett, 2018).

How the values were obtained:
HL-60 = experiment: Cytotoxicity against human HL60 cells assessed as decrease in cell viability after 4 days by MTT assay; assay type: functional, cell-based; conditions: HL-60, 96 h
SMMC-7721 = experiment: Cytotoxicity against human SMMC7721 cells assessed as decrease in cell viability after 4 days by MTT assay; assay type: functional, cell-based; conditions: SMMC-7721, 96 h
A549 = experiment: Cytotoxicity against human A549 cells assessed as decrease in cell viability after 4 days by MTT assay; assay type: functional, cell-based; conditions: A549, 96 h
MCF7 [1] = experiment: Cytotoxicity against human MCF7 cells assessed as decrease in cell viability after 4 days by MTT assay; assay type: functional, cell-based; conditions: MCF7, 96 h
SW480 [2] = experiment: Cytotoxicity against human SW480 cells assessed as decrease in cell viability after 4 days by MTT assay; assay type: functional, cell-based; conditions: SW480, 96 h
SW480 [3] = experiment: Potency index, ratio of cisplatin IC50 to compound IC50 for human SW480 cells; assay type: functional
MCF7 [4] = experiment: Potency index, ratio of cisplatin IC50 to compound IC50 for human MCF7 cells; assay type: functional

Compound | IC50 (HL-60) [nM] | IC50 (SMMC-7721) [nM] | IC50 (A549) [nM] | IC50 (MCF7 [1]) [nM] | IC50 (SW480 [2]) [nM] | Ratio IC50 (SW480 [3]) | Ratio IC50 (MCF7 [4])
C=C1C(=O)[C@]23C[C@@]1(O)CC[C@H]2c1ccc(O)c(C)c1[C@@H]3Cn1cc(-c2ccc(C(F)(F)F)cc2)nn1 | 720 | 1440 | 1110 | 1840 | 370 | 22 | –
C=C1C(=O)[C@]23C[C@@]1(O)CC[C@H]2c1ccc(OS(=O)(=O)c2ccc(C)cc2)c(C)c1[C@@H]3Cn1cc(-c2ccc(Br)cc2)nn1 | 1020 | 4320 | 1630 | 250 | 1590 | – | 46
C=C1C(=O)[C@]23C[C@@]1(O)CC[C@H]2c1ccc(OS(=O)(=O)c2ccc(C)cc2)c(C)c1[C@@H]3Cn1cc(-c2ccc(OC)cc2)nn1 | 1020 | 1720 | 1470 | 310 | 1640 | – | 37
C=C1C(=O)[C@]23C[C@@]1(O)CC[C@H]2c1ccc(O)c(C)c1[C@@H]3Cn1cc(-c2ccc(C)cc2)nn1 | 830 | 920 | 1260 | 370 | 330 | 25 | –
C=C1C(=O)[C@]23C[C@@]1(O)CC[C@H]2c1ccc(OS(=O)(=O)c2ccc(C)cc2)c(C)c1[C@@H]3Cn1cc(-c2ccc(C)cc2)nn1 | 1110 | 4410 | 1830 | 320 | 1460 | – | 36
C=C1C(=O)[C@]23C[C@@]1(O)CC[C@H]2c1ccc(OS(=O)(=O)c2ccc(C)cc2)c(C)c1[C@@H]3Cn1cc(-c2ccc(F)cc2)nn1 | 1290 | 4280 | 1950 | 330 | 1630 | – | 35
C=C1C(=O)[C@]23C[C@@]1(O)CC[C@H]2c1ccc(O)c(C)c1[C@@H]3Cn1cc(-c2ccccn2)nn1 | 1970 | 1270 | 1570 | 2240 | 410 | 20 | –
C=C1C(=O)[C@]23C[C@@]1(O)CC[C@H]2c1ccc(O)c(C)c1[C@@H]3Cn1cc(-c2ccc(Br)cc2)nn1 | 560 | 1300 | 1140 | 270 | 310 | 36 | –
C=C1C(=O)[C@]23C[C@@]1(O)CC[C@H]2c1ccc(OS(=O)(=O)c2ccc(C)cc2)c(C)c1[C@@H]3Cn1cc(-c2ccc(Cl)cc2)nn1 | 1260 | 6180 | 1870 | 1440 | 2390 | – | 8
C=C1C(=O)[C@]23C[C@@]1(O)CC[C@H]2c1ccc(O)c(C)c1[C@@H]3Cn1cc(-c2ccc(Cl)cc2)nn1 | 690 | 670 | 640 | 2470 | 280 | 29 | –
C=C1C(=O)[C@]23C[C@@]1(O)CC[C@H]2c1ccc(OS(=O)(=O)c2ccc(C)cc2)c(C)c1[C@@H]3Cn1cc(-c2ccccn2)nn1 | 1810 | 2830 | 2310 | 320 | 1970 | – | 36
C=C1C(=O)[C@]23C[C@@]1(O)CC[C@H]2c1ccc(O)c(C)c1[C@@H]3Cn1cc(-c2ccc(OC)cc2)nn1 | 1150 | 860 | 1250 | 1710 | 220 | 39 | –
C=C1C(=O)[C@]23C[C@@]1(O)CC[C@H]2c1ccc(O)c(C)c1[C@@H]3Cn1cc(-c2ccccc2)nn1 | 750 | 1320 | 1160 | 1740 | 260 | 31 | –
C=C1C[C@]23C[C@@]1(O)CC[C@H]2c1cc(Br)c(O)c(C)c1[C@@H]3Cn1cc(-c2ccccc2)nn1 | > 20000 | > 20000 | > 20000 | > 20000 | > 20000 | – | –
C=C1C[C@]23C[C@@]1(O)CC[C@H]2c1cc(Br)c(O)c(C)c1[C@@H]3Cn1cc(-c2ccccn2)nn1 | > 20000 | > 20000 | > 20000 | > 20000 | > 20000 | – | –
Cc1c(O)ccc2c1[C@H](Cn1cc(-c3ccc(C(F)(F)F)cc3)nn1)[C@@]13CC(=O)[C@@](C)(CC[C@@H]21)C3 | > 20000 | > 20000 | > 20000 | > 20000 | > 20000 | – | –
Cc1ccc(S(=O)(=O)Oc2ccc3c(c2C)[C@H](Cn2cc(-c4ccc(C(F)(F)F)cc4)nn2)[C@@]24CC(=O)[C@@](C)(CC[C@@H]32)C4)cc1 | > 20000 | > 20000 | > 20000 | > 20000 | > 20000 | – | –
COc1ccc(-c2cn(C[C@H]3c4c(ccc(OS(=O)(=O)c5ccc(C)cc5)c4C)[C@@H]4CC[C@@]5(C)C[C@]43CC5=O)nn2)cc1 | > 20000 | > 20000 | > 20000 | > 20000 | > 20000 | – | –
C=C1C[C@]23C[C@@]1(O)CC[C@@H]2c1cccc(C)c1[C@@H]3Cn1cc(-c2ccc(C)cc2)nn1 | > 20000 | > 20000 | > 20000 | > 20000 | > 20000 | – | –
C=C1C[C@]23C[C@@]1(O)CC[C@H]2c1ccc(O)c(C)c1[C@@H]3Cn1cc(-c2ccc(C)cc2)nn1 | > 20000 | > 20000 | > 20000 | > 20000 | > 20000 | – | –
Cc1ccc(-c2cn(C[C@H]3c4c(ccc(OS(=O)(=O)c5ccc(C)cc5)c4C)[C@@H]4CC[C@@]5(C)C[C@]43CC5=O)nn2)cc1 | > 20000 | > 20000 | > 20000 | > 20000 | > 20000 | – | –
